Data published in patent US20220160652A1, “USE OF VITAMIN K IN COMBINATION WITH ANTICOAGULANTS” (KAYDENCE PHARMA AS, priority 2019, published 2022).

Key:
VSMCs [1] = test: ATP increase, 24 h incubation (luminescence); format: cell-based; details: 10 μM, p=0.014 for MK-7
Procedure: This study was performed to determine if vitamin K2 (MK-7) affects ATP generation. ATP is generated via glycolysis in the cytoplasm and via both the Krebs-cycle and oxidative phosphorylation in the mitochondria. ATP generation via glycolysis delivers only 2 ATP, whereas ATP generation in the mitochondria generates some 32 ATP.
(§1) To perform this study, VSCMs (5000 cells/well) were plated in 96-well plates and left to adhere overnight. Next, cells were incubated for 24 hours with either vehicle, vitamin K2 (MK-7) (10 μM), or UQ10 (10 μM). Hoechst was added to correct for cell number (1 μg/mL). Next, ATP was measured using mammalian lysis buffer for 5 minutes after which 50 μL ATP substrate solution was added to the wells and incubated for 10 minutes in a dark environment. Finally, the medium was transferred to a white plate to measure luminescence

VSMCs [2] = test: ATP increase, 48 h incubation with CoCl2 comparison (luminescence); format: cell-based; details: 10 μM, vs CoCl2 100 μM
Procedure: as §1, with “This study was performed to further investigate the origin of ATP production that is influenced by vitamin K2 (MK-7). To” for “To”, “for 48” for “for 24”, “vehicle, CoCl2 (100 μM),” for “vehicle,”, “5 minutes,” for “5 minutes”, “Finally,” for “Finally, the”, “measure luminescence.” for “measure luminescence”

VSMCs [3] = test: Hypoxia (CoCl2) induced oxidative stress in VSMCs (DCFDA); format: cell-based; details: 10 μM, after 50 μM CoCl2 for 19 hours
Procedure: This study was performed to determine whether intracellular oxidative stress in VSCMs is derived from mitochondrial dysfunction. To perform this study, VSMCs were incubated with cobalt chloride, a known stabilizer of HIF1a. Cobalt chloride binding to HIF1a prevents the degradation of HIF1a and thus results in a cellular hypoxia state. HIF1a has been implicated in cancer biology as well as a number of other pathophysiologies, specifically in areas of vascularization and angiogenesis, energy metabolism, cell survival, and tumor invasion. Under normal circumstances, after injury, HIF1a is degraded by the enzyme prolyl hydroxylase (PHD). The continued up-regulation of HIF1 a (mimicked by cobalt chloride) promotes tumor growth and metastasis through its role in initiating angiogenesis and regulating cellular metabolism to overcome hypoxia. Hypoxia promotes apoptosis in both normal and tumor cells. Additionally, hypoxia generates significant intracellular oxidative stress.
To perform the study, VSMCs (10,000 cells/well) were plated in a 96-well plate and left to adhere overnight. Next, the medium was changed to a medium supplemented with 50 μM CoCl2 for 19 hours. The next day, cells were washed and incubated for 1 hour with 20 μM DCFDA in the presence of a vehicle (solvent for CoCl2 and vitamin K2 (MK-7)/UQ10), 10 μM vitamin K2 (MK-7), or 10 μM UQ10 in medium. The medium was then changed to a medium supplemented with vehicle, vitamin K2 (MK-7)/UQ10, or CoCl2, and fluorescent was measured for 6 hours. Fluorescence intensity was normalized for cell count.

[4] = system: human vascular smooth muscle cells (hVSMCs); test: Vitamin K2 (MK-7) and ATP pathway: ATP luminescence with warfarin; format: cell-based; details: warfarin 50 μM with vitamin K2 (MK-7) 10 μM, 24 hours
Procedure: This study was performed in order to determine the effect of vitamin K2 (MK-7) on warfarin-induced oxidative stress in muscles. To perform this study, human vascular smooth muscle cells (hVSMCs; 5,000 cells/well) were plated in 96-well dark plates and left to adhere overnight. Next, cells were incubated for 24 hours with either vehicle only (as blank control), warfarin (10 or 50 μM), vitamin K2 (MK-7) (10 μM), or a combination of warfarin (50 μM) and vitamin K2 (MK-7) (10 μM). Hoechst was added to correct for cell number (1 μg/mL). Next, ATP was measured using mammalian lysis buffer for 5 minutes after which 50 μL ATP substrate solution was added to the wells and incubated for 10 minutes in a dark environment. Finally, medium was transferred to a white plate to measure luminescence.

Sprague-Dawley rats = test: Thrombin Time (TT) in treated Sprague-Dawley rats; format: in vivo, rat; details: added to dabigatran and to rivaroxaban
Procedure: To perform the study, 45 wild-type male Sprague-Dawley and 45 transgenic male Ren-2 rats [TGR(mREN-2)27] at the age of 10-11 weeks at the beginning of the treatment period were purchased from animal facility IKEM-CEM Institute of Clinical and Experimental Medicine (Prague, Czech Republic). All animals in the experiment were housed in individually ventilated cages (2-3 rats per cage) and kept in the animal rooms of JCET at a relative humidity of 55±10%, a temperature of 22±2 ° C., and a light cycle of 7 AM to 7 PM. The rats had free access to food and water. After delivery, animals were randomly divided into 10 experimental groups (5 or 10 rats per group), as indicated below in Table 1.
Four days before the start of the treatment, the first part of animals' body weight and food intake was measured in selected representative three cages (rats n=9) to calculate the appropriate amount of tested compounds required for addition to the diet to obtain the dosing indicated in Table 1. It was estimated that food intake was approximately 30 g of chow per rat per day. […] The body mass of the rats was measured at the beginning and at the end of treatment.
Prothrombin Time (PT), activated Partial Thromboplastin Time (aPTT), Thrombin Time (TT) and fibrinogen levels (Clauss method) were determined according to the manufacturer's instructions using Coag-Chrom 3003 apparatus (Bio-ksel, Grudziadz, Poland). […]

**Q.** For `CC(C)=CCC/C(C)=C/CC/C(C)=C/CC/C(C)=C/CC/C(C)=C/CC/C(C)=C/CC/C(C)=C/CC1=C(C)C(=O)c2ccccc2C1=O` [vitamin K2 (MK-7)], which “ATP production in VSMCs compared to the vehicle” value (VSMCs [1]) is on record?
**A.** increased ATP production in VSMCs significantly

**Q.** And the “ATP levels compared to CoCl2” value (VSMCs [2])?
**A.** significant higher ATP levels

**Q.** And the “hypoxia induced oxidative stress (counteraction)” value (VSMCs [3])?
**A.** seems to counteract hypoxia induced oxidative stress

**Q.** What about the “oxidative stress induced by warfarin” value [4] of the same compound?
**A.** counteracted the oxidative stress induced by warfarin

**Q.** And the “increase of thrombin time on addition of vitamin K2 (MK-7)” value (Sprague-Dawley rats)?
**A.** 5-7%
